Results reported in patent US9670223B2, “Compounds with super-aspirin effects” (SOLVOTRIN THERAPEUTICS LTD., priority 2011, dated 2017).
“Also recorded” adds a separate entry of the source.

Legend:
washed platelets (WP) = test: Collagen-induced platelet aggregation in washed platelets (light aggregometry); assay type: cell-based, human; parameters: IC50: unit of the concentration uncertain; conditions: for IC50: inhibition of platelet aggregation in response to collagen (5 (unit uncertain)), washed platelets; for effect of eserine on inhibition of collagen-induced aggregation in WP: physostigmine (eserine) 10 μM
Method: (§1) PRP and WP (2.5×10^8 platelets ml^−1) were prepared from blood. Briefly 36 ml whole blood was collected into 4 ml of 3.15% sodium citrate; this was centrifuged at 250 ¥g for 20 min (with gentle acceleration and deceleration). At this point PRP, which had separated from white blood cells and red blood cells, was gently removed. When WP were required this PRP was centrifuged at 700 g for 10 min (with gentle acceleration and deceleration) in the presence of prostacyclin. The platelet-poor plasma (PPP) was removed and the platelet pellet was washed three times with Tyrode's buffer, before being re-suspended in Tyrode's buffer to a concentration of 2.5 ¥108 platelets/ml.
(§2) Platelet aggregation was measured by light aggregometry. […] Aggregation was initiated by the addition of agonists, and monitored by Aggro-Link software for at least 6 min.
(§3) To study the aggregatory potency of ADP, the concentration-response (0.3-10 μM) curves were generated. Collagen at different concentrations (2-5 μg/ml) was also used to induce platelet aggregation. Submaximal concentrations of agonists, i.e. the concentrations that gave approximately 95% of the maximal aggregation were used to study the effects of inhibitors of aggregation. Aspirin and aspirin prodrugs was incubated for various intervals prior to the addition of aggregating agents.
To study the involvement of plasma BuChE in the activation of ST0701, purified BuChE (3 U/ml) was incubated with WP for 5 min in the aggregometer with stirring at 900 r.p.m. before the addition of the test compounds ST0701 which was incubated with the WP for a further 10 min, prior to the addition of collagen (5 ug/ml).
(§4) Eserine (in DMSO, 10 μM, giving a final concentration≦0.25% DMSO, which pilot studies had determined not to affect platelet aggregation) was preincubated with PRP or WP for 5 min in the aggregometer with stirring at 900 r.p.m. before the addition of test compounds (ST0701-05), which were incubated in PRP or WP for a further 10 min prior to the addition of an agonist (10 μM ADP or 5 μg/ml Collagen) to induce platelet aggregation.
Phenylmethylsulphonylfluoride (PMSF) 20, 50 and 100 μM dissolved in EtOH (<0.2% EtOH, which pilot studies had determined not to affect platelet aggregation) was preincubated in WP in the aggregometer for 5 min with stirring at 900 r.p.m. before the addition of test compound ST0702 to the WP, which was further incubated for 10 min prior to the addition of collagen (2 μg/ml) to induce platelet aggregation.

[1] = system: platelet rich plasma (PRP); test: Collagen-induced platelet aggregation in platelet rich plasma (light aggregometry); assay type: cell-based, human
Method: as §1, §2, §3, §4

TxB2 = TxB2 suppression after single oral gavage dose; assay type: in vivo, cynomolgus monkey; conditions: Phase 2A, single oral gavage, ST0702 9.6 mg/kg, aspirin 4.2 mg/kg, 1 and 24 hours post dosing
HT1080 cells = test: Tumour cell-induced platelet aggregation (TCIPA), static conditions, HT1080; assay type: cell-based, human; conditions: static, WP, 300 and 500 μM, HT1080 2×10^5/ml
Method: Three human tumor cell lines, 59M ovarian adenocarcinoma, Caco-2 colon adenocarcinoma and HT1080 fibrocarcinoma cells, were obtained from the European Cell Culture Collection. Cell lines were cultured as monolayers in 75 ml culture flasks at 37° C. in a humidified atmosphere with 5% CO2. 59M cells and HT1080 were cultured in Dulbecco's […] (DMEM) supplemented with 10% fetal bovine serum (FBS) and gentamycin (0.05 mg/ml), penicillin (0.06 mg/ml), and streptomycin (0.01 mg/ml). Caco-2 cell line was cultured in Minimum Essential Medium (MEM) supplemented with 20% FBS and the same antibiotics as above. The cells were supplied with fresh medium and subcultured three times each week.
Washed platelet suspensions (2.5×10^11 platelets 1^−1) were prepared from blood an mixed with the anticoagulant sodium citrate (0.315% final concentration).
The interactions between platelets and tumor cells were measured by light aggregometry (Alonso-Escolano et al., 2004; Jurasz et al., 2001b; Radomski et al., 1991). Briefly, washed platelet samples (2.5×10^8/ml) were placed in an eight channel PAP 8 aggregometer (BIO/DATA CORPORATION, Horsham, Pa., U.S.A.) and incubated for 10 min at 37° C., with stirring at 900 r.p.m., prior to the addition of aggregating agents. […] TCIPA was initiated by the addition of cancer cells, and monitored by Aggro-Link software for at least 30 min. For experiments using inhibitors, aggregation was initiated after 10 min preincubation with these compounds.
To study the ability of the aspirin pro-drugs to inhibit TCIPA in WP cancer cell lines such as HT1080 cells (2×10^5/ml), CaCo2 cells (1.5×10^3/ml) or 59M cells (1×10^3/ml) were used in the presence or absence of aspirin nicotinate (ST0702), ISAS, orthonitrate and metanitrate at 300 and 500 μM. Platelet aggregation was initiated in washed platelets (WP) using HT1080 cells (2×10^5/ml), CaCo2 cells (1.5×10^3/ml) or 59M cells (1×10^3/ml). In addition, regular aspirin (300 and 500 uM) was used as control. Results were expressed in percent changes in maximal light transmission, with 100% representing light transmission of platelet medium alone. ST0702 is hydrolyzed by plasma esterases along two pathways liberating both aspirin and 5-nicotinate salicylate (ST0702 salicylate)(metabolite). The latter is further processed to isosorbide-5-nicotinate and eventually to nicotinic acid. The orthonitrate and metanitrate compounds liberate aspirin and nitric oxide (NO). ISAS meanwhile is hydrolysed to aspirin and salicylic acid. Aspirin (300 and 500 μM) was used in control experiments. Results were expressed in percent changes in maximal light transmission, with 100% representing light transmission of platelet medium alone. Further experiments were performed with ST0702 salicylate (500 μM).

59M cells = test: Tumour cell-induced platelet aggregation (TCIPA), static conditions, 59M; assay type: cell-based, human; conditions: for inhibition of TCIPA induced by 59M: static, WP, 300 and 500 μM, 59M 1×10^3/ml
From the text: ISAS meanwhile is hydrolysed to aspirin and salicylic acid. […] The structure of platelet-tumor cell aggregates was studied using phase-contrast microscopy (Alonso-Escolano et al., 2004; Jurasz et al., 2001). […] Aliquots of each sample were then taken for phase-contrast microscopy examination using an Olympus CKX41 microscope (Olympus America Inc., […].). Photomicrographs were captured using a digital camera and MicroFire (Olympus America Inc.) software (Alonso-Escolano et al., 2004; Jurasz et al., 2001).

P-selectin = test: Flow cytometry of platelet P-selectin during TCIPA induced by 59M cells; assay type: cell-based, human; conditions: 300 μM
[2] = cited from earlier work; for % Aspirin release: in human plasma, From Reference 7
[3] = 200 μM in PRP, collagen 5 μg/ml

Structure (SMILES)	IC50 (washed platelets (WP); Homo sapiens, Platelet) [µM]	IC50 (washed platelets (WP)) [µM]	effect of eserine on inhibition of collagen-induced aggregation in WP (washed platelets (WP))	effect of eserine on inhibition of collagen-induced aggregation in PRP ([1]; compounds 300 μM, physostigmine (eserine) 10 μM)	TxB2 suppression (TxB2 levels as percentage of baseline), in words (TxB2)	inhibition of TCIPA induced by HT1080 (HT1080 cells)	inhibition of TCIPA induced by HT1080 (HT1080 cells; listed as aspirin)	inhibition of TCIPA induced by 59M (59M cells)	inhibition of TCIPA induced by 59M (59M cells; listed as aspirin)	59M-mediated increase in platelet surface P-selectin (P-selectin)	% Aspirin release [2]	effect of ST0702 on collagen-induced aggregation in WP after PMSF pretreatment (washed platelets (WP); PMSF 50 μM, 20 μM, not significant)	effect of ST0702 on collagen-induced aggregation in WP after PMSF pretreatment (washed platelets (WP); PMSF 100 μM, ST0702 200 μM (200-300 μM elsewhere in the source), collagen 2 μg/ml)	inhibition of aggregation following 0-5 min preincubation [1, 3]	preincubation time at which inhibition is maximal [1, 3] [min]	effect on TCIPA when tumour cells were preincubated with compound (59M cells; 59M cells preincubated)	aspirin released in vitro ([2]; human plasma solution / in-vitro, of available (stoichiometric) aspirin, listed as ISANA) [%]
CC(=O)Oc1ccccc1C(=O)O [Aspirin]	35	34	did not affect the inhibitory actions	did not exert significant effects	effective	did not exert any significant effect	did not exert a significant effect	did not exert any significant effect	did not exert a significant effect	failed to prevent	100%	–	–	–	–	–	–
CC(=O)Oc1ccccc1C(=O)O[C@H]1CO[C@H]2[C@@H]1OC[C@H]2OC(=O)c1cccnc1 [ST0702, isosorbide-2-aspirinate-5-nicotinate]	154	–	not abolished	–	effective	consistently inhibited TCIPA	–	consistently inhibited TCIPA	–	significantly (P<0.01, n=4) inhibited	30-45%	slightly attenuated	significantly attenuated; also recorded: abolished	No significant inhibition	15 to 20	no effect on TCIPA	40
